Measured values as given in patent US12479843B2, “Spiro ring-containing quinazoline compounds” (WIGEN BIOMEDICINE TECHNOLOGY (SHANGHAI) CO., LTD., priority 2019, dated 2025).

How the values were obtained:
H358 cells = experiment: Antiproliferative activity against H358 cells (Cell Titer Glow, ultra-low attachment plate); assay type: cell-based; settings: Homo sapiens, NCI-H358, 72 h, 96-well ultra-low attachment plate, three days after addition of compound, Cell Titer Glow
Protocol: 2500 H358 cells were seeded in a 96-well ultra-low attachment plate (corning, 7007). After one day of growth, a serially diluted compound (a maximum concentration of 5 μM, 5-fold dilution, a total of five doses) was added. Three days after the addition of the compound, Cell Titer Glow (Promega, G9681) was added to evaluate pellet growth, and the IC50 value was calculated.

pERK level in H358 cells = experiment: pERK and ERK protein content assay in H358 cells (ELISA); assay type: cell-based; settings: Homo sapiens, NCI-H358, compound 1 μM, 24 h, pERK/ERK ratio compared with DMSO group, read-out: Inhibition rate (%) of pERK level
Protocol: H358 cells were seeded in a 24-well plate. After one day of growth, a test compound (at a concentration of 1 μM) was added. After 24 h of action of the compound, the cells were lysed, and the cell lysate was transferred to a 96-well ELISA plate. The levels of pERK and ERK in the lysate were measured using an ELISA kit (abcam 176660). The ratio of pERK to ERK was calculated and compared with that of the DMSO group, and the percentage of inhibition of pERK activity by the compound was calculated.

| SMILES | IC50 (H358 cells) | inhibition at 1 µM (pERK level in H358 cells) |
| --- | --- | --- |
| C=CC(=O)N1CC2(CCN(c3nc(OC4CCN(CCOC)CC4)nc4c(OCC(F)(F)F)c(-c5ccccc5C(F)(F)F)c(C5CC5)cc34)CC2)C1 [Compound 55] | < 300 nM | > 90% |
| C=CC(=O)N1CC2(CCN(c3nc(OC4CCN(CCOC)CC4)nc4c(OCC(F)(F)F)c(-c5c(O)ccc6ccccc56)c(C5CC5)cc34)CC2)C1 [Compound 59] | < 300 nM | > 90% |
| C=CC(=O)N1CC2(CCN(c3nc(OC4CCN(CCOC)CC4)nc4c(OCC(F)(F)F)c(-c5cc(O)cc6ccccc56)c(C5CC5)cc34)CC2)C1 [Compound 60] | < 300 nM | > 90% |
| C=C(F)C(=O)N1CC2(CCN(c3nc(OC4CCN(CCCOC)CC4)nc4c(OCC(F)(F)F)c(-c5c(C)ccc6[nH]ncc56)c(C5CC5)cc34)CC2)C1 [Compound 63] | < 300 nM | > 90% |
| C=C(F)C(=O)N1CC2(CCN(c3nc(O[C@H]4CCN(CCOC)C4)nc4c(OCC(F)(F)F)c(-c5c(C)ccc6[nH]ncc56)c(C5CC5)cc34)CC2)C1 [Compound 65] | < 300 nM | > 90% |
| C=C(F)C(=O)N1CC2(CCN(c3nc(O[C@H]4CCN(C5COC5)C4)nc4c(OCC(F)(F)F)c(-c5c(C)ccc6[nH]ncc56)c(C5CC5)cc34)CC2)C1 [Compound 66] | 300 to 1000 nM | 50 to 90% |
| C=CC(=O)N1CC2(CCN(c3nc(N4CC5(COC5)C4)nc4c(OCC(F)(F)F)c(-c5c(C)ccc6[nH]ncc56)c(C5CC5)cc34)CC2)C1 [Compound 67] | 300 to 1000 nM | 50 to 90% |
| C=CC(=O)N1CC2(CCN(c3nc(N4CC5(CN(C)C5)C4)nc4c(OCC(F)(F)F)c(-c5c(C)ccc6[nH]ncc56)c(C5CC5)cc34)CC2)C1 [Compound 69] | < 300 nM | > 90% |
| C=CC(=O)N1CC2(CCN(c3nc(N4CC5(CN(CCOC)C5)C4)nc4c(OCC(F)(F)F)c(-c5c(C)ccc6[nH]ncc56)c(C5CC5)cc34)CC2)C1 [Compound 71] | < 300 nM | > 90% |
| C=C(F)C(=O)N1CC2(CCN(c3nc(N4CC5(CN(CCOC)C5)C4)nc4c(OCC(F)(F)F)c(-c5c(C)ccc6[nH]ncc56)c(C5CC5)cc34)CC2)C1 [Compound 72] | < 300 nM | > 90% |
| C=C(F)C(=O)N1CC2(CCN(c3nc(N4CC5(CCN(C)C5)C4)nc4c(OCC(F)(F)F)c(-c5c(C)ccc6[nH]ncc56)c(C5CC5)cc34)CC2)C1 [Compound 74] | < 300 nM | > 90% |
| C=CC(=O)N1CC2(CCN(c3nc(N4CC5(CCN(CCOC)C5)C4)nc4c(OCC(F)(F)F)c(-c5c(C)ccc6[nH]ncc56)c(C5CC5)cc34)CC2)C1 [Compound 75] | < 300 nM | > 90% |
| C=CC(=O)N1CC2(CCN(c3nc(N4CC5(CCN(C)CC5)C4)nc4c(OCC(F)(F)F)c(-c5c(C)ccc6[nH]ncc56)c(C5CC5)cc34)CC2)C1 [Compound 77] | 300 to 1000 nM | 50 to 90% |
| C=C(F)C(=O)N1CC2(CCN(c3nc(N4CC5(CCN(C)CC5)C4)nc4c(OCC(F)(F)F)c(-c5c(C)ccc6[nH]ncc56)c(C5CC5)cc34)CC2)C1 [Compound 78] | 300 to 1000 nM | 50 to 90% |
| C=CC(=O)N1CC2(CCN(c3nc(N4CC5(CCN(CC(C)CC)CC5)C4)nc4c(OCC(F)(F)F)c(-c5c(C)ccc6[nH]ncc56)c(C5CC5)cc34)CC2)C1 (stereo not shown) [Compound 81] | < 300 nM | > 90% |
| C=C(F)C(=O)N1CC2(CCN(c3nc(N4CC5(CCN(CC(C)CC)CC5)C4)nc4c(OCC(F)(F)F)c(-c5c(C)ccc6[nH]ncc56)c(C5CC5)cc34)CC2)C1 (stereo not shown) [Compound 82] | < 300 nM | > 90% |
| C=CC(=O)N1CC2(CCN(c3nc(N4CC5(CCN(CC6CC6)CC5)C4)nc4c(OCC(F)(F)F)c(-c5c(C)ccc6[nH]ncc56)c(C5CC5)cc34)CC2)C1 [Compound 83] | < 300 nM | > 90% |
| C=C(F)C(=O)N1CC2(CCN(c3nc(N4CC5(CCN(CC(F)(F)F)CC5)C4)nc4c(OCC(F)(F)F)c(-c5c(C)ccc6[nH]ncc56)c(C5CC5)cc34)CC2)C1 [Compound 86] | 300 to 1000 nM | 50 to 90% |
| C=CC(=O)N1CC2(CCN(c3nc(N4CC5(CCN(CCC#N)CC5)C4)nc4c(OCC(F)(F)F)c(-c5c(C)ccc6[nH]ncc56)c(C5CC5)cc34)CC2)C1 [Compound 87] | < 300 nM | > 90% |
| C=CC(=O)N1CC2(CCN(c3nc(N4CC5(CCN(C6COC6)CC5)C4)nc4c(OCC(F)(F)F)c(-c5c(C)ccc6[nH]ncc56)c(C5CC5)cc34)CC2)C1 [Compound 89] | < 300 nM | > 90% |
| C=C(F)C(=O)N1CC2(CCN(c3nc(N4CC5(CCN(C6COC6)CC5)C4)nc4c(OCC(F)(F)F)c(-c5c(C)ccc6[nH]ncc56)c(C5CC5)cc34)CC2)C1 [Compound 90] | < 300 nM | > 90% |
| C=C(F)C(=O)N1CC2(CCN(c3nc(N4CC5(CCN(CCOC)CC5)C4)nc4c(OCC(F)(F)F)c(-c5c(C)ccc6[nH]ncc56)c(C5CC5)cc34)CC2)C1 [Compound 92] | < 300 nM | > 90% |
| C=CC(=O)N1CC2(CCN(c3nc(N4CC5(CCN(CCOCC)CC5)C4)nc4c(OCC(F)(F)F)c(-c5c(C)ccc6[nH]ncc56)c(C5CC5)cc34)CC2)C1 [Compound 93] | < 300 nM | > 90% |
| C=C(F)C(=O)N1CC2(CCN(c3nc(N4CC5(CCN(CCOCC)CC5)C4)nc4c(OCC(F)(F)F)c(-c5c(C)ccc6[nH]ncc56)c(C5CC5)cc34)CC2)C1 [Compound 94] | < 300 nM | > 90% |
| C=CC(=O)N1CC2(CCN(c3nc(N4CC5(CCN(CCCOC)CC5)C4)nc4c(OCC(F)(F)F)c(-c5c(C)ccc6[nH]ncc56)c(C5CC5)cc34)CC2)C1 [Compound 95] | < 300 nM | > 90% |

More lines, main results first:

| IC50 (H358 cells) | SMILES | inhibition at 1 µM (pERK level in H358 cells) |
| --- | --- | --- |
| < 300 nM | C=CC(=O)N1CC2(CCN(c3nc(OC4CCN(CCOC)CC4)nc4c(OCC(F)(F)F)c(-c5ccc(F)cc5F)c(C5CC5)cc34)CC2)C1 [Compound 56] | > 90% |
| < 300 nM | C=CC(=O)N1CC2(CCN(c3nc(OC4CCN(CCOC)CC4)nc4c(OCC(F)(F)F)c(-c5cc(O)ccc5F)c(C5CC5)cc34)CC2)C1 [Compound 57] | > 90% |
| < 300 nM | C=CC(=O)N1CC2(CCN(c3nc(OC4CCN(CCOC)CC4)nc4c(OCC(F)(F)F)c(-c5cc(O)ccc5Cl)c(C5CC5)cc34)CC2)C1 [Compound 58] | > 90% |
| < 300 nM | C=C(F)C(=O)N1CC2(CCN(c3nc(OC4CCN(C)CC4)nc4c(OCC(F)(F)F)c(-c5c(C)ccc6[nH]ncc56)c(C5CC5)cc34)CC2)C1 [Compound 61] | > 90% |
| < 300 nM | C=C(F)C(=O)N1CC2(CCN(c3nc(OC4CCN(C5COC5)CC4)nc4c(OCC(F)(F)F)c(-c5c(C)ccc6[nH]ncc56)c(C5CC5)cc34)CC2)C1 [Compound 62] | > 90% |
| 300 to 1000 nM | C=C(F)C(=O)N1CC2(CCN(c3nc(O[C@H]4CCN(C)C4)nc4c(OCC(F)(F)F)c(-c5c(C)ccc6[nH]ncc56)c(C5CC5)cc34)CC2)C1 [Compound 64] | 50 to 90% |
| 300 to 1000 nM | C=C(F)C(=O)N1CC2(CCN(c3nc(N4CC5(COC5)C4)nc4c(OCC(F)(F)F)c(-c5c(C)ccc6[nH]ncc56)c(C5CC5)cc34)CC2)C1 [Compound 68] | 50 to 90% |
| 300 to 1000 nM | C=C(F)C(=O)N1CC2(CCN(c3nc(N4CC5(CN(C)C5)C4)nc4c(OCC(F)(F)F)c(-c5c(C)ccc6[nH]ncc56)c(C5CC5)cc34)CC2)C1 [Compound 70] | > 90% |
| < 300 nM | C=CC(=O)N1CC2(CCN(c3nc(N4CC5(CCN(C)C5)C4)nc4c(OCC(F)(F)F)c(-c5c(C)ccc6[nH]ncc56)c(C5CC5)cc34)CC2)C1 [Compound 73] | > 90% |
| < 300 nM | C=C(F)C(=O)N1CC2(CCN(c3nc(N4CC5(CCN(CCOC)C5)C4)nc4c(OCC(F)(F)F)c(-c5c(C)ccc6[nH]ncc56)c(C5CC5)cc34)CC2)C1 [Compound 76] | > 90% |
| 300 to 1000 nM | C=CC(=O)N1CC2(CCN(c3nc(N4CC5(CCN(C6CC6)CC5)C4)nc4c(OCC(F)(F)F)c(-c5c(C)ccc6[nH]ncc56)c(C5CC5)cc34)CC2)C1 [Compound 79] | 50 to 90% |
| 300 to 1000 nM | C=C(F)C(=O)N1CC2(CCN(c3nc(N4CC5(CCN(C6CC6)CC5)C4)nc4c(OCC(F)(F)F)c(-c5c(C)ccc6[nH]ncc56)c(C5CC5)cc34)CC2)C1 [Compound 80] | 50 to 90% |
| < 300 nM | C=C(F)C(=O)N1CC2(CCN(c3nc(N4CC5(CCN(CC6CC6)CC5)C4)nc4c(OCC(F)(F)F)c(-c5c(C)ccc6[nH]ncc56)c(C5CC5)cc34)CC2)C1 [Compound 84] | > 90% |
| 300 to 1000 nM | C=CC(=O)N1CC2(CCN(c3nc(N4CC5(CCN(CC(F)(F)F)CC5)C4)nc4c(OCC(F)(F)F)c(-c5c(C)ccc6[nH]ncc56)c(C5CC5)cc34)CC2)C1 [Compound 85] | > 90% |
| 300 to 1000 nM | C=C(F)C(=O)N1CC2(CCN(c3nc(N4CC5(CCN(CCC#N)CC5)C4)nc4c(OCC(F)(F)F)c(-c5c(C)ccc6[nH]ncc56)c(C5CC5)cc34)CC2)C1 [Compound 88] | 50 to 90% |
| < 300 nM | C=CC(=O)N1CC2(CCN(c3nc(N4CC5(CCN(CCOC)CC5)C4)nc4c(OCC(F)(F)F)c(-c5c(C)ccc6[nH]ncc56)c(C5CC5)cc34)CC2)C1 [Compound 91] | > 90% |
